Where “and” joins values, the source holds several entries; their conditions need not be identical. Equal entries are not always repeated. Inconclusive results and toxic doses are left out. How the source made its calls: active means survival T/C of 150% or more; inactive means T/C below 125% in these data.
System: CD2F1 mice, L1210 leukemia ip, survival T/C
Assay: NCI In Vivo Anticancer Drug Screen. Data for tumor model L1210 Leukemia (intraperitoneal) in CD2F1 (CDF1) mice
Details: higher = longer survival
Outline: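 Ratio T/C, where T is the treated-group value and C the vehicle-dosed control value, from mice implanted with a transplantable tumor.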

[1] = endpoint: mean survival time, dose: 50.0 mg/kg/injection, schedule: Q04DX003 (ip), vehicle: saline
[2] = endpoint: mean survival time, dose: 100.0 mg/kg/injection, schedule: Q04DX003 (ip), vehicle: saline
[3] = endpoint: mean survival time, dose: 100.0 mg/kg/injection, schedule: Q01DX009 (ip), vehicle: saline with Tween-80
[4] = endpoint: mean survival time, dose: 200.0 mg/kg/injection, schedule: Q01DX009 (ip), vehicle: saline with Tween-80
[5] = endpoint: mean survival time, dose: 100.0 mg/kg/injection, schedule: Q04DX003 (ip), vehicle: saline with Tween-80
[6] = endpoint: mean survival time, dose: 200.0 mg/kg/injection, schedule: Q04DX003 (ip), vehicle: saline with Tween-80
[7] = endpoint: mean survival time, dose: 400.0 mg/kg/injection, schedule: Q01DX009 (ip), vehicle: saline with Tween-80
[8] = endpoint: mean survival time, dose: 400.0 mg/kg/injection, schedule: Q04DX003 (ip), vehicle: saline with Tween-80
[9] = endpoint: mean survival time, dose: 12.5 mg/kg/injection, schedule: Q01DX009 (ip), vehicle: saline with Tween-80
[10] = endpoint: mean survival time, dose: 25.0 mg/kg/injection, schedule: Q01DX009 (ip), vehicle: saline with Tween-80
[11] = endpoint: mean survival time, dose: 50.0 mg/kg/injection, schedule: Q01DX009 (ip), vehicle: saline with Tween-80
[12] = endpoint: mean survival time, dose: 12.5 mg/kg/injection, schedule: Q04DX003 (ip), vehicle: saline with Tween-80
[13] = endpoint: mean survival time, dose: 100.0 mg/kg/injection, schedule: Q01DX001 (ip), vehicle: saline
[14] = endpoint: mean survival time, dose: 200.0 mg/kg/injection, schedule: Q01DX001 (ip), vehicle: saline

Measured: T/C

Nc1nc(N)c2c(n1)=NC(c1cccc3ccccc13)N=2 (centres undefined)
inactive: endpoint: mean survival time, dose: 6.25 mg/kg/injection, schedule: Q01DX005 (ip), vehicle: water 92 % of control | endpoint: mean survival time, dose: 12.5 mg/kg/injection, schedule: Q01DX005 (ip), vehicle: water 89 % of control | endpoint: mean survival time, dose: 25.0 mg/kg/injection, schedule: Q01DX005 (ip), vehicle: water 91 % of control | endpoint: mean survival time, dose: 50.0 mg/kg/injection, schedule: Q01DX005 (ip), vehicle: water 92 % of control | endpoint: mean survival time, dose: 100.0 mg/kg/injection, schedule: Q01DX005 (ip), vehicle: water 89 % of control | endpoint: mean survival time, dose: 200.0 mg/kg/injection, schedule: Q01DX005 (ip), vehicle: other 96 % of control | endpoint: mean survival time, dose: 400.0 mg/kg/injection, schedule: Q01DX005 (ip), vehicle: other 96 % of control

CN(C)CCOc1cccc(Br)c1
inactive: endpoint: mean survival time, dose: 25.0 mg/kg/injection, schedule: Q04DX003 (ip), vehicle: saline 100 % of control | [1] 100 % of control | [2] 100 % of control

O=C(On1nnc2ccccc2c1=O)c1ccccc1
inactive: endpoint: mean survival time, dose: 12.5 mg/kg/injection, schedule: Q01DX001 (ip), vehicle: distilled water + Tween-80 102 % of control | endpoint: mean survival time, dose: 25.0 mg/kg/injection, schedule: Q01DX001 (ip), vehicle: distilled water + Tween-80 101 % of control | endpoint: mean survival time, dose: 50.0 mg/kg/injection, schedule: Q01DX001 (ip), vehicle: distilled water + Tween-80 98 % of control | endpoint: mean survival time, dose: 100.0 mg/kg/injection, schedule: Q01DX001 (ip), vehicle: distilled water + Tween-80 100 % of control | endpoint: mean survival time, dose: 200.0 mg/kg/injection, schedule: Q01DX001 (ip), vehicle: distilled water + Tween-80 97 % of control

NC(=O)SCCCCl
inactive: [3] 103 % of control | endpoint: mean survival time, dose: 118.0 mg/kg/injection, schedule: Q01DX009 (ip), vehicle: saline with Tween-80 106 % of control | endpoint: mean survival time, dose: 178.0 mg/kg/injection, schedule: Q01DX009 (ip), vehicle: saline with Tween-80 112 % of control | [4] 113 % of control | endpoint: mean survival time, dose: 266.0 mg/kg/injection, schedule: Q01DX009 (ip), vehicle: saline with Tween-80 124 % of control

OCc1c(Cl)cccc1Cl
inactive: endpoint: mean survival time, dose: 100.0 mg/kg/injection, schedule: Q01DX001 (ip), vehicle: saline with Tween-80 104 % of control | [3] 96 % of control and 102 % of control | endpoint: mean survival time, dose: 100.0 mg/kg/injection, schedule: Q04DX002 (ip), vehicle: saline with Tween-80 97 % of control and 105 % of control | [5] 103 % of control | endpoint: mean survival time, dose: 200.0 mg/kg/injection, schedule: Q01DX001 (ip), vehicle: saline with Tween-80 102 % of control | [4] 95 % of control and 96 % of control | endpoint: mean survival time, dose: 200.0 mg/kg/injection, schedule: Q04DX002 (ip), vehicle: saline with Tween-80 97 % of control and 112 % of control | [6] 113 % of control | endpoint: mean survival time, dose: 400.0 mg/kg/injection, schedule: Q01DX001 (ip), vehicle: saline with Tween-80 107 % of control | [7] 101 % of control and 104 % of control | endpoint: mean survival time, dose: 400.0 mg/kg/injection, schedule: Q04DX002 (ip), vehicle: saline with Tween-80 101 % of control and 109 % of control | [8] 103 % of control

c1ccc2sc(SSN3CC4CCC(CC4)C3)nc2c1
inactive: [9] 97 % of control and 108 % of control | [10] 93 % of control and 101 % of control | [11] 102 % of control and 103 % of control | [3] 101 % of control and 108 % of control | [4] 95 % of control and 108 % of control | [7] 103 % of control

O=C(O)/C=C/C(=O)c1ccccc1
inactive: [12] 104 % of control | endpoint: mean survival time, dose: 25.0 mg/kg/injection, schedule: Q04DX003 (ip), vehicle: saline with Tween-80 98 % of control

c1ccc(-c2nn(-c3ccccc3)[n+](-c3ccccc3)n2)cc1
inactive: endpoint: mean survival time, dose: 1.25 mg/kg/injection, schedule: Q01DX009 (ip), vehicle: saline with Tween-80 100 % of control | endpoint: mean survival time, dose: 2.5 mg/kg/injection, schedule: Q01DX009 (ip), vehicle: saline with Tween-80 100 % of control | endpoint: mean survival time, dose: 5.0 mg/kg/injection, schedule: Q01DX009 (ip), vehicle: saline with Tween-80 104 % of control | endpoint: mean survival time, dose: 5.0 mg/kg/injection, schedule: Q04DX003 (ip), vehicle: saline 95 % of control

O=S(=O)(Cl)c1ccc2cc3ccccc3cc2c1
inactive: [1] 96 % of control | [13] 94 % of control | [2] 96 % of control | [14] 101 % of control | endpoint: mean survival time, dose: 200.0 mg/kg/injection, schedule: Q04DX003 (ip), vehicle: saline 102 % of control

CO[C@@]12[C@@H]3N[C@@H]3CN1c1c(O)c(C)c(N=C3N=NC(=S)S3)c(O)c1[C@@H]2COC(N)=O
inactive: endpoint: mean survival time, dose: 1.5 mg/kg/injection, schedule: Q01DX001 (ip), vehicle: distilled water + Tween-80 98 % of control | endpoint: mean survival time, dose: 3.0 mg/kg/injection, schedule: Q01DX001 (ip), vehicle: distilled water + Tween-80 98 % of control | endpoint: mean survival time, dose: 6.0 mg/kg/injection, schedule: Q01DX001 (ip), vehicle: distilled water + Tween-80 98 % of control | endpoint: mean survival time, dose: 12.0 mg/kg/injection, schedule: Q01DX001 (ip), vehicle: distilled water + Tween-80 102 % of control | endpoint: mean survival time, dose: 24.0 mg/kg/injection, schedule: Q01DX001 (ip), vehicle: distilled water + Tween-80 110 % of control | endpoint: mean survival time, dose: 48.0 mg/kg/injection, schedule: Q01DX001 (ip), vehicle: saline with Tween-80 100 % of control | endpoint: mean survival time, dose: 96.0 mg/kg/injection, schedule: Q01DX001 (ip), vehicle: saline with Tween-80 110 % of control

O=C1CSC(=S)N1/N=C/c1ccc(Cl)s1
inactive: endpoint: mean survival time, dose: 75.0 mg/kg/injection, schedule: Q01DX001 (ip), vehicle: other 96 % of control

Cn1c(=S)sc2nc3ccccc3n2c1=S
inactive: endpoint: median survival time, dose: 15.0 mg/kg/injection, schedule: Q01DX005 (ip), vehicle: saline with Tween-80 103 % of control | endpoint: median survival time, dose: 30.0 mg/kg/injection, schedule: Q01DX005 (ip), vehicle: saline with Tween-80 107 % of control | endpoint: median survival time, dose: 60.0 mg/kg/injection, schedule: Q01DX005 (ip), vehicle: saline with Tween-80 111 % of control | endpoint: median survival time, dose: 120.0 mg/kg/injection, schedule: Q01DX005 (ip), vehicle: saline with Tween-80 107 % of control | endpoint: median survival time, dose: 240.0 mg/kg/injection, schedule: Q01DX005 (ip), vehicle: saline with Tween-80 107 % of control

O=[N+]([O-])c1c[c]([Hg][Cl])c(O)[c]([Hg][Cl])c1
inactive: [12] 93 % of control

CC(=O)Oc1cccc2c1C(=O)c1c(OC(C)=O)cc(C)cc1C2=O
inactive: [13] 101 % of control | [14] 101 % of control | endpoint: mean survival time, dose: 400.0 mg/kg/injection, schedule: Q01DX001 (ip), vehicle: saline 98 % of control

Cc1c(C)c(C)c([N+](=O)[O-])c([N+](=O)[O-])c1C
inactive: endpoint: mean survival time, dose: 50.0 mg/kg/injection, schedule: Q01DX005 (ip), vehicle: saline with Tween-80 101 % of control | endpoint: mean survival time, dose: 100.0 mg/kg/injection, schedule: Q01DX005 (ip), vehicle: saline with Tween-80 101 % of control | endpoint: mean survival time, dose: 200.0 mg/kg/injection, schedule: Q01DX005 (ip), vehicle: saline with Tween-80 101 % of control

O=C1NC(=O)C2CC=CCC12 (centres undefined)
inactive: [3] 96 % of control | [4] 102 % of control | [7] 102 % of control

COC(=O)c1ccc(SCC2=Nc3c(nc(N)[nH]c3=O)NCC2)cc1
inactive: endpoint: mean survival time, dose: 0.38 mg/kg/injection, schedule: Q01DX009 (ip), vehicle: distilled water + Tween-80 100 % of control | endpoint: mean survival time, dose: 0.75 mg/kg/injection, schedule: Q01DX009 (ip), vehicle: distilled water + Tween-80 101 % of control | endpoint: mean survival time, dose: 1.5 mg/kg/injection, schedule: Q01DX009 (ip), vehicle: distilled water + Tween-80 105 % of control | endpoint: mean survival time, dose: 3.0 mg/kg/injection, schedule: Q01DX009 (ip), vehicle: distilled water + Tween-80 100 % of control | endpoint: mean survival time, dose: 6.0 mg/kg/injection, schedule: Q01DX009 (ip), vehicle: distilled water + Tween-80 101 % of control | endpoint: mean survival time, dose: 12.0 mg/kg/injection, schedule: Q01DX009 (ip), vehicle: distilled water + Tween-80 93 % of control | endpoint: mean survival time, dose: 48.0 mg/kg/injection, schedule: Q01DX009 (ip), vehicle: distilled water + Tween-80 88 % of control

O=c1oc2ccccc2c(O)c1-c1cccc2ccccc12
inactive: [9] 91 % of control | [10] 103 % of control | [11] 100 % of control

O=C(NC(Cc1c[nH]c2ccccc12)C(=O)O)c1ccccc1 (centres undefined)
inactive: [3] 108 % of control | [5] 109 % of control | [4] 100 % of control | [6] 98 % of control | [7] 104 % of control | [8] 103 % of control | endpoint: mean survival time, dose: 600.0 mg/kg/injection, schedule: Q01DX009 (ip), vehicle: saline with Tween-80 108 % of control

Reference: PubChem BioAssay AID256 (DTP/NCI, 2004)
